# Data published in ChEMBL document CHEMBL1201862, “PubChem BioAssay data set” (2004).
# Where a name gives a salt, the structure may show the parent alone. Active and inactive are the calls of the source.
# What was measured:
# Cytochrome P450 2C19 = Cytochrome P450 2C19 (Homo sapiens, UniProt P33261); assay: Cytochrome panel assay with activity outcomes. Panel member name: p450-cyp2c19 Compounds with AC50 equal or less than 10 uM are considered active; type: functional
# Cytochrome P450 1A2 = target: T1, Cytochrome P450 1A2 (Homo sapiens, UniProt P05177);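 note: PubChem cytochrome P450 panel assay, CYP1A2 panel member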
# T1 sequence (P05177 whole entry): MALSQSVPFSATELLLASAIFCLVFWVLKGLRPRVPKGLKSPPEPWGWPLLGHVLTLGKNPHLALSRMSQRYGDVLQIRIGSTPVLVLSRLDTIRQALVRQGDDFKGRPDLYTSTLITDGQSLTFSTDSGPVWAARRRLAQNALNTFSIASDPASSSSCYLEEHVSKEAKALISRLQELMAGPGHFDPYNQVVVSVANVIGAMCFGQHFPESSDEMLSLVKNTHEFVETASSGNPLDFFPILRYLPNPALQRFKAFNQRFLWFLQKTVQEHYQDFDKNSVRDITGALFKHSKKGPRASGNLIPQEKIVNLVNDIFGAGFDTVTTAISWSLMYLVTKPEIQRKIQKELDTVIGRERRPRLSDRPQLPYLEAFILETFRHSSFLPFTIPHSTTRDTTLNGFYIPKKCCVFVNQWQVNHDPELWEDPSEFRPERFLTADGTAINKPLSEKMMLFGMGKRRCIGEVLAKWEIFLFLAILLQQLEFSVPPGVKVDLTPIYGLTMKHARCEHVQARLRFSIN
# [1] = target: T2, Heat shock factor protein 1 (Mus musculus, UniProt P38532); assay: HSF1 potentiators in luciferase reporter cells, confirmation, cell-based, NIH3T3, luminescence, dose retest (AID 435004); type: functional;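 note: stress induced by proteasome inhibitor MG132 added 30 min after compound; luciferase reporter driven by HSF1 response element in NIH3T3 cells; actives raise luminescence as potentiators of the MG132 stress response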
# T2 sequence (P38532 whole entry): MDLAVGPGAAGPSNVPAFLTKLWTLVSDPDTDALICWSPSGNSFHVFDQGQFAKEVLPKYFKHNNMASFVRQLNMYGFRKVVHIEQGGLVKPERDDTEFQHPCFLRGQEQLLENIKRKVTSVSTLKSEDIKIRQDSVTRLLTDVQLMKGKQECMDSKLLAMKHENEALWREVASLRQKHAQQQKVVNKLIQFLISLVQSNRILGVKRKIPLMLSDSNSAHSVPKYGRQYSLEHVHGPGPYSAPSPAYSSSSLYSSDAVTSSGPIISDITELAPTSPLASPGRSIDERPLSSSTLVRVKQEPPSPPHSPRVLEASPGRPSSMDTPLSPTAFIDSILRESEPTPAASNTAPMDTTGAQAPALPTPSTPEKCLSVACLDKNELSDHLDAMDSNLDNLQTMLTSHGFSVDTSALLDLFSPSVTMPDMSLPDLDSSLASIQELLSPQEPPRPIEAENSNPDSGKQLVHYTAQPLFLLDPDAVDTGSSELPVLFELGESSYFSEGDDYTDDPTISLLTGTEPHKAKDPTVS
# [2] = target: FAD-linked sulfhydryl oxidase ALR (Homo sapiens, UniProt P55789); assay: inhibitors of human ALR sulfhydryl oxidase, dose response, biochemical, H2O2 detection, luminescence, cherry-pick (AID 493248)
# Cytochrome P450 3A4 = Cytochrome P450 3A4 (Homo sapiens, UniProt P08684);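 note: CYP3A4 tested as one member of a cytochrome P450 panel screen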
# Cytochrome P450 2D6 = Cytochrome P450 2D6 (Homo sapiens, UniProt P10635);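 note: CYP2D6 member of a cytochrome P450 panel assay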
# [3] = Luminescence Cell-Based Dose Retest to Confirm Inhibitors of Cancer Stem Cells. [Related pubchem assays (depositor defined):AID2717, AID2721]; type: functional; conditions: Homo sapiens
# [4] = P. falciparum Dd2 growth inhibitors, dose response, SYBR Green, cherry-picked samples (AID 1159567); type: functional, cell-based
# H4 = assay: Luminescence Cell-Based Dose Response HTS to Identify Activators of 5'UTR Stem-Loop Driven Prion Protein mRNA Translation in H4 Neuroglioblastoma Cells. [Related pubchem assays: 1829 (Project Summary), 1814 (Primary HTS)]; type: functional; conditions: Homo sapiens
# [5] = target: T3, Calpain-2 catalytic subunit (Sus scrofa, UniProt P43367); assay: pig calpain II inhibitor potency, dose response, biochemical, fluorogenic peptide substrate (AID 1420); type: functional
# T3 sequence (P43367 whole entry): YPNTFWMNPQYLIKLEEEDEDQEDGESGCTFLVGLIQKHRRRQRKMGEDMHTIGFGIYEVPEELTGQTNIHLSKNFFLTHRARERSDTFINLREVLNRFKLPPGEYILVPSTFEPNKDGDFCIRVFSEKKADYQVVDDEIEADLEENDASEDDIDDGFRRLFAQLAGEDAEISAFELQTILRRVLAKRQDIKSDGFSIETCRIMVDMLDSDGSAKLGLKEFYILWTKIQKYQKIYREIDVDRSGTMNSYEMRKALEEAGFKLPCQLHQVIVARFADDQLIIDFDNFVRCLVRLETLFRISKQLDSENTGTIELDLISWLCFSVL
# [6] = target: Luciferin 4-monooxygenase (Photinus pyralis, UniProt P08659); assay: firefly luciferase enzyme inhibitors, dose response, biochemical, luminescence (AID 1891)
# [7] = Luminescence Cell-Based Dose Confirmation HTS to Identify Inhibitors of Platelet Dense Granule Release. [Related pubchem assays: 1663 (Primary HTS), 1678 (Summary of Project)]; type: functional
# Sequence of Cytochrome P450 2C19 (P33261 whole entry): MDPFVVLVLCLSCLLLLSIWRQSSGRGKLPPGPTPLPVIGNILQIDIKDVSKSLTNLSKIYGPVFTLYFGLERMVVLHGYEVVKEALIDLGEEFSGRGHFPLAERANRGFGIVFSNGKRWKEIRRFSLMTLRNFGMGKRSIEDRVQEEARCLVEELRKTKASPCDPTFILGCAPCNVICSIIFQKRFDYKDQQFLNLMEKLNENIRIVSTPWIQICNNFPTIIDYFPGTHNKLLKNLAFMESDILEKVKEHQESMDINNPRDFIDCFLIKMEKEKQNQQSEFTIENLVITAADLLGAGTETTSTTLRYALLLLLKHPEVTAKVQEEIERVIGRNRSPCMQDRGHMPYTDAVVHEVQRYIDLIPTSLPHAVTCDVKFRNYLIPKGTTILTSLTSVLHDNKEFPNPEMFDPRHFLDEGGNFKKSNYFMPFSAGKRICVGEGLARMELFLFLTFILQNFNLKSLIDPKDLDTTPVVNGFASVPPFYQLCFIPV
# Sequence of Cytochrome P450 2D6 (P10635 whole entry): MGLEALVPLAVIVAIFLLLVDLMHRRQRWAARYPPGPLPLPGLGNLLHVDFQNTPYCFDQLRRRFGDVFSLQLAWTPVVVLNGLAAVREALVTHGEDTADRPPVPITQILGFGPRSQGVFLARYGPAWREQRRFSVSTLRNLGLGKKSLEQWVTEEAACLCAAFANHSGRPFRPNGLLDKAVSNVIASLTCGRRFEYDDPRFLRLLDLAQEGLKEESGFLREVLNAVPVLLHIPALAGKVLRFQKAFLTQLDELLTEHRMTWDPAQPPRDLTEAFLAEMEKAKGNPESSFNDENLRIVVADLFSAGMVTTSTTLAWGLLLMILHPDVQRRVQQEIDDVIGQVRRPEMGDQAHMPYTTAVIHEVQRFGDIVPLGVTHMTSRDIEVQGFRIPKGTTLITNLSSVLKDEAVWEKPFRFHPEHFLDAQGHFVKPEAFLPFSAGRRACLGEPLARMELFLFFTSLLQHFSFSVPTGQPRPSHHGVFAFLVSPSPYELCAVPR
# Sequence of FAD-linked sulfhydryl oxidase ALR (P55789 whole entry): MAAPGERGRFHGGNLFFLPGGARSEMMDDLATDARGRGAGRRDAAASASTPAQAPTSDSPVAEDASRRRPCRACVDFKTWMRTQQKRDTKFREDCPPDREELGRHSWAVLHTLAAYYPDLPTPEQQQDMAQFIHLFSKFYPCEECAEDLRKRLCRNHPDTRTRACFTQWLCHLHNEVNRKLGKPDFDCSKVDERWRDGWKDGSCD
# Sequence of Cytochrome P450 3A4 (P08684 whole entry): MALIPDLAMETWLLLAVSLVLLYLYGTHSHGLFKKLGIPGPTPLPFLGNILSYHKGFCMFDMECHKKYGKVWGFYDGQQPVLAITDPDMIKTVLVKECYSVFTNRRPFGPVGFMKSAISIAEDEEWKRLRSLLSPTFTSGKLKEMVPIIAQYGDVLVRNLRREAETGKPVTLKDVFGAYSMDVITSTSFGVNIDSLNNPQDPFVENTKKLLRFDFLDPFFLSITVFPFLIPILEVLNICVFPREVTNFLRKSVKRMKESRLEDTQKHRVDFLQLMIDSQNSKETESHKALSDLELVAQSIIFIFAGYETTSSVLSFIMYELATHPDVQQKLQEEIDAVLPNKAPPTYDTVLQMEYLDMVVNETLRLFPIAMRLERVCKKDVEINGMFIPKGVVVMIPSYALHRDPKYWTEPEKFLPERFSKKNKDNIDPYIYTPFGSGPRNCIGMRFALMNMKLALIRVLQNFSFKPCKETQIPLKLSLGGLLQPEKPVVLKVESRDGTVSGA
# Sequence of Luciferin 4-monooxygenase (P08659 whole entry): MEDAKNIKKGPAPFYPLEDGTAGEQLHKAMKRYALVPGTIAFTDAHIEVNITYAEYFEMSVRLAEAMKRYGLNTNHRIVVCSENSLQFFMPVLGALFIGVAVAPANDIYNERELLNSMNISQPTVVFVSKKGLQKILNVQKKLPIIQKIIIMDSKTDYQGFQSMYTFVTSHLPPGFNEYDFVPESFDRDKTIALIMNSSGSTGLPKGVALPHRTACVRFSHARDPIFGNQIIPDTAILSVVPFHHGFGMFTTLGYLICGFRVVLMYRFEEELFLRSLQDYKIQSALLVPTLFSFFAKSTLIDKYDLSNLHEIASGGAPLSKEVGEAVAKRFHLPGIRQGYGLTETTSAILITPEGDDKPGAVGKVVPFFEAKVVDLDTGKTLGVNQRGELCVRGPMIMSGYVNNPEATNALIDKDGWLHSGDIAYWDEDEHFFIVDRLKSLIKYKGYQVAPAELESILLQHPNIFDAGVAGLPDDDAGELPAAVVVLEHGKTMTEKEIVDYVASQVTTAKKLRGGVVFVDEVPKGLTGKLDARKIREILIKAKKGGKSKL
smiles,measurement,setting,value
CC(C)CN1CCCC2(CCN(S(=O)(=O)c3ccccc3)CC2)C1,AC50,Cytochrome P450 2C19; read-out: AC50,31.6 µM (inconclusive)
COCCn1c(=O)c(-c2cn(C)c3ccccc23)nc2cnc(Oc3ccc(OC)cc3)nc21,AC50,Cytochrome P450 1A2,2.51 µM (inconclusive)
same,AC50,Cytochrome P450 2C19; read-out: AC50,15.8 µM (inconclusive)
CC(=O)c1nn(-c2cccc(Br)c2)cc1C(=O)c1ccc(Cl)cc1,EC50,[1],> 260 µM (inactive)
O=C(O)c1cccc2c3c([nH]c12)CCCC3,AC50,[2],5.66 µM (active)
CCOC(=O)c1ccccc1NC(=O)/C(C)=C/C(=O)O,AC50,Cytochrome P450 1A2,20 µM (inconclusive)
same,AC50,Cytochrome P450 2C19; read-out: AC50,39.8 µM (inconclusive)
O=C(OC1CCOC1=O)c1cc(Cl)ccc1[N+](=O)[O-] (centres undefined),EC50,[1],> 260 µM (inactive)
COc1ccc2nc(NC(=O)CSc3nnc(C)s3)sc2c1,AC50,Cytochrome P450 2C19; read-out: AC50,3.55 µM (inconclusive)
same,AC50,Cytochrome P450 3A4,3.98 µM (inconclusive)
N=C(N)SCc1nc2ccccc2c(=O)n1-c1ccccc1Cl,AC50,Cytochrome P450 2C19; read-out: AC50,10 µM (inconclusive)
same,AC50,Cytochrome P450 2D6,0.316 µM (inconclusive)
same,AC50,[3],6.37 µM (active)
O=C(O)CCC(=O)NCCn1c(-c2ccccc2)cs/c1=N\c1ccccc1,AC50,[2],22.3 µM (active)
same,EC50,[1],> 260 µM (inactive)
CCc1noc(N)c1C(=O)Nc1ccc(F)c(Cl)c1,AC50,Cytochrome P450 2C19; read-out: AC50,15.8 µM (inconclusive)
same,AC50,Cytochrome P450 3A4,15.8 µM (inconclusive)
same,AC50,Cytochrome P450 2D6,22.4 µM (inconclusive)
CCCN(C)C[C@@H]1Oc2cc(C#CC3CCCC3)ccc2S(=O)(=O)N([C@@H](C)CO)C[C@@H]1C,AC50,[4],4.85 µM (active)
CCS(=O)(=O)N1CC2(CN(Cc3ccccc3F)[C@@H](CO)c3[nH]c4cc(OC)ccc4c32)C1,AC50,[4],9.94 µM (active)
O=C(c1c[nH]c2ccccc12)N1CCN(c2ccccc2)CC1,AC50,[2],4.16 µM (active)
C=CCn1c(S)nnc1C1CCCCC1,EC50,[1],> 260 µM (inactive)
Cc1cc2c(ncn2C)c(NS(=O)(=O)c2cc(Cl)ccc2Cl)c1C,EC50,[1],> 260 µM (inactive)
COc1ccc(NC(=O)COc2ccc(CNCCCN3CCOCC3)cc2OC)cc1.Cl,AC50,Cytochrome P450 2C19,inconclusive
O=C(c1ccc(F)cc1)N1CC(=O)N2[C@H](CO)[C@H](c3ccc(C#Cc4ccc(F)cc4)cc3)[C@H]2C1,AC50,[4],4.05 µM (active)
COc1ccc(-c2c[nH]nc2-c2ccc(OCc3ccc([N+](=O)[O-])cc3)cc2O)cc1OC,EC50,[1],> 260 µM (inactive)
N#Cc1c(NC(=O)c2ccccc2)sc2c1CCC2,EC50,H4,12.6 µM (active)
COc1ccc(NC(=O)NC2CC3CCCC(C2)N3Cc2ccccc2)cc1 (centres undefined),AC50,Cytochrome P450 2C19; read-out: AC50,14.1 µM (inconclusive)
same,AC50,Cytochrome P450 2D6,11.2 µM (inconclusive)
CC(C(=O)Nc1ccccc1Br)N1c2cccc3cccc(c23)S1(=O)=O (centres undefined),EC50,[1],> 260 µM (inactive)
CC(=O)Nc1ccc(NC(=O)c2ccccc2CC[N+](=O)[O-])cc1,AC50,Cytochrome P450 2C19; read-out: AC50,0.355 µM (inconclusive)
same,AC50,Cytochrome P450 2D6,14.1 µM (inconclusive)
CN1CCN([C@@H](c2ccccc2)c2ccc(Cl)cc2)CC1 [CHLORCYCLIZINE HYDROCHLORIDE],AC50,Cytochrome P450 2C19; read-out: AC50,3.98 µM (inconclusive)
COc1ccc(Nc2c(-c3ccc(C)cc3)nc3cnccn23)cc1,IC50,[5],> 50 µM (not active)
same,AC50,[2],0.763 µM (active)
COc1cccc(NC(=O)N(C)C[C@H]2Oc3ncc(/C=C/c4ccccc4)cc3C(=O)N([C@@H](C)CO)C[C@@H]2C)c1,AC50,[4],6.14 µM (active)
N#C[C@@H]1[C@H](c2ccc(C#CC3CCCCC3)cc2)[C@H](CO)N1C(=O)Nc1ccc(F)cc1,AC50,[4],5.43 µM (active)
Cc1cccc(COc2ccc(/C=N/NC(=O)c3nnn(-c4nonc4N)c3COc3ccc(F)cc3)cc2)c1,EC50,H4,61.7 µM (active)
NC(=O)NC(=O)C(Nc1ccc(N2CCCCC2)cc1)c1ccccc1 (centres undefined),AC50,[2],0.797 µM (active)
O=C(CCC(=O)N1CCN(c2ccc(O)cc2)CC1)c1ccc(Br)cc1,EC50,[1],> 260 µM (inactive)
same,AC50,[3],6.98 µM (active)
N#Cc1ccc(CN2CC3(CCN(C(=O)c4cc(C(F)(F)F)cc(C(F)(F)F)c4)CC3)C2)cc1,AC50,Cytochrome P450 2C19; read-out: AC50,39.8 µM (inconclusive)
same,AC50,Cytochrome P450 2D6,31.6 µM (inconclusive)
C[C@H](CO)N1C[C@H](C)[C@H](CN(C)S(=O)(=O)c2ccccc2)Oc2ccc(NC(=O)Cc3cn(C)c4ccccc34)cc2C1=O,AC50,[4],3.2 µM (active)
COc1ccc(C(=O)Nc2ccccc2C(=O)N/N=C/c2cccc3ccccc23)cc1,EC50,H4,> 120 µM (not active)
same,EC50,[6],1.35 µM (active)
same,EC50,[7],1.15 µM (active)
CC(C)NC(=O)N1[C@H](C#N)[C@H](c2ccc(-c3ccc(F)cc3)cc2)[C@@H]1CO,AC50,[4],4.17 µM (active)
COc1cccc(Nc2ccccc2C(=O)O)c1,AC50,[2],3.35 µM (active)
